Experimental data from patent publication US9271971B2, “Pyrido[3,4-B]indoles and methods of use” (Medivation Technologies, Inc., priority 2009, dated 2016).

Assays:
[1] = target: human recombinant histamine H1 receptor (Homo sapiens, UniProt P35367); test: Histamine H1 radioligand binding assay; conditions: [3H]Pyrilamine specific binding; for inhibition at 1 µM: read-out: Percentage Inhibition, Histamine Binding (1 μM) H1
Description: To evaluate in radioligand binding assays the activity of compounds of the invention, human recombinant histamine H1 receptor expressed in Chinese hamster ovary (CHO) cells [De Backer, M. D. et al., Biochem. Biophys. Res. Comm. (1993), 197(3):1601] in a modified Tris-HCl buffer (50 mM Tris-HCl, pH 7.4, 2 mM MgCl2, 100 mM NaCl, 250 mM Sucrose) was used. Compounds of the invention were incubated with 1.2 nM [^3H]Pyrilamine for 180 min. at 25° C. Non-specific binding was estimated in the presence of 1 μM pyrilamine. Receptor proteins were filtered and washed, the filters were then counted to determine [^3H]Pyrilamine specifically bound. Compounds were screened at 1 μM or lower, using 1% DMSO as vehicle. Biochemical assay results are presented as the percent inhibition of specific binding in Table 2.

[2] = target: human recombinant serotonin (5-Hydroxytryptamine) 5-HT7 receptor (Homo sapiens, UniProt P34969); test: Serotonin 5-HT7 radioligand binding assay; conditions: [3H]LSD specific binding; for inhibition at 1 µM: read-out: Percent Inhibition of ligand binding, Serotonin (1 μM ligand concentration) 5-HT7
Sequence of human recombinant serotonin (5-Hydroxytryptamine) 5-HT7 receptor (P34969 whole entry): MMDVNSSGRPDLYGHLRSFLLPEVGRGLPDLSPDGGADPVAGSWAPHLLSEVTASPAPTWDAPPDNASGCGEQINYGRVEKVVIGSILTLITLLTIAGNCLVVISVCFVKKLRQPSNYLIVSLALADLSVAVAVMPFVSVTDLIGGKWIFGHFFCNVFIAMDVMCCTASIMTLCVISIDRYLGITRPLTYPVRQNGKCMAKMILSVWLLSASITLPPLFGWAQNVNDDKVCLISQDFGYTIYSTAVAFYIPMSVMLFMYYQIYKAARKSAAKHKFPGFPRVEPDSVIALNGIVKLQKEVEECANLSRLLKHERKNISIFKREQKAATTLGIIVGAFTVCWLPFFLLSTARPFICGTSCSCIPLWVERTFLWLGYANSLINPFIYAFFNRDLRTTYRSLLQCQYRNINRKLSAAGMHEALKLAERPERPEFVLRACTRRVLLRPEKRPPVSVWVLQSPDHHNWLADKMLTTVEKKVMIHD
Description: To evaluate in radioligand binding assays the activity of compounds of the invention, human recombinant serotonin (5-Hydroxytryptamine) 5-HT7 receptor expressed in Chinese hamster ovary (CHO) cells [Roth, B. L. et al., J. Pharmacol. Exp. Ther. (1994), 268:1403; Shen, Y. et al., J. Biol. Chem. (1993), 268:18200] in a modified Tris-HCl buffer (50 mM Tris-HCl, pH 7.4, 10 mM MgCl2, 0.5 mM EDTA) was used. Compounds of invention were incubated with 5.5 nM [^3H] Lysergic acid diethylamide (LSD) for 2 h at 25° C. Non-specific binding was estimated in the presence of 10 μM Serotonin (5-HT). Receptor proteins were filtered and washed, the filters were then counted to determine [^3H]LSD specifically bound. Compounds were screened at 1 μM or lower, using 1% DMSO as vehicle. Biochemical assay results are presented as the percent inhibition of specific binding in Table 4.

[3] = target: T1, rat adrenergic α1A receptor (Rattus norvegicus, UniProt P43140); test: Adrenergic α1A radioligand binding assay; conditions: [3H]Prozosin specific binding, read-out: Percent Inhibition of ligand binding, Adrenergic (0.1 μM ligand conc.) α1A
T1 construct: rat adrenergic α1A receptor obtained from Wistar Rat submaxillary glands; from tissue; host or cells: Wistar Rat submaxillary glands
T1 sequence (P43140 1-466): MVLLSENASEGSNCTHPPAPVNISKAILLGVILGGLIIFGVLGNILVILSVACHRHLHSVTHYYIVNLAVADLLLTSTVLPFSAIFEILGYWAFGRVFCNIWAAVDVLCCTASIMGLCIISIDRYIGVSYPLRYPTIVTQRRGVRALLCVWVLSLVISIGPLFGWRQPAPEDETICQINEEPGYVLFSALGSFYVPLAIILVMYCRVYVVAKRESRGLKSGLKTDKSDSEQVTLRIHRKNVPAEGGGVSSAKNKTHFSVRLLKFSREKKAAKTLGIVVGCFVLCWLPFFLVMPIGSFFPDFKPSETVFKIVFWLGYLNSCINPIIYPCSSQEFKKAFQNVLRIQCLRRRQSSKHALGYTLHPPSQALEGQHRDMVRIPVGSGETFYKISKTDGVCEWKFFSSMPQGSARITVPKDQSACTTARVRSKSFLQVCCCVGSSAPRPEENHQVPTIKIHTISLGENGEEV
Description: (§1) To evaluate in radioligand binding assays the activity of compounds of the invention, rat adrenergic α1A receptor obtained from Wistar Rat submaxillary glands (Michel, A. D. et al., Br. J. Pharmacol. (1989), 98:883] in a modified Tris-HCl buffer (50 mM Tris-HCl buffer, pH 7.4, 0.5 mM EDTA) was used. Compounds of the invention were incubated with 0.25 nM [^3H]Prozosin for 60 min. at 25° C. Non-specific binding was estimated in the presence of 10 μM phentolamine. Receptor proteins were filtered and washed, the filters were then counted to determine [^3H]Prozosin specifically bound. Compounds of the invention were screened at 1 μM or lower, using 1% DMSO as vehicle. Compounds of the invention were tested in this biochemical assay. Biochemical assay results for representative compounds were presented as the percent inhibition of specific binding in Table 3.

[4] = target: T2, rat adrenergic α1B receptor (Rattus norvegicus, UniProt P15823); test: Adrenergic α1B radioligand binding assay; conditions: [3H]Prozosin specific binding, read-out: Percent Inhibition of ligand binding, Adrenergic (0.1 μM ligand conc.) α1B
T2 construct: rat adrenergic α1B receptor obtained from Wistar Rat liver; from tissue; host or cells: Wistar Rat liver
T2 sequence (P15823 1-515): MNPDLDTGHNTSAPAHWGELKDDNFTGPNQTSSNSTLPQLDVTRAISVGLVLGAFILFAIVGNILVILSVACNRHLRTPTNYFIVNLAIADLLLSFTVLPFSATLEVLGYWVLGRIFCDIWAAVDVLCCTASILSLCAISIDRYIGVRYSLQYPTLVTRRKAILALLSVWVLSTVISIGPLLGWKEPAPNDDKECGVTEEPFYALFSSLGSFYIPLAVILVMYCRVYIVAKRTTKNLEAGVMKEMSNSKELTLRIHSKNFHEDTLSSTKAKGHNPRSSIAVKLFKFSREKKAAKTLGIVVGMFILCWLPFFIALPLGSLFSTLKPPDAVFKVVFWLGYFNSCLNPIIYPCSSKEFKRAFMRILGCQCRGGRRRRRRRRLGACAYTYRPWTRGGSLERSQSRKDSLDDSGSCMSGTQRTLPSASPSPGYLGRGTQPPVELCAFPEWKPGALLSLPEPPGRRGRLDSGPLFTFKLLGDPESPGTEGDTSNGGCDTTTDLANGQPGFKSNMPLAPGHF
Description: as §1, with “rat adrenergic α1B receptor obtained” for “rat adrenergic α1A receptor obtained”, “Wistar Rat liver [Garcia-S′ainz, J. A. et al., Biochem. Biophys. Res. Commun. (1992), 186:760; Michel, A. D.” for “Wistar Rat submaxillary glands (Michel, A. D.”, “bound. Compounds were screened” for “bound. Compounds of the invention were screened”

Sequence of human recombinant histamine H1 receptor (P35367 whole entry): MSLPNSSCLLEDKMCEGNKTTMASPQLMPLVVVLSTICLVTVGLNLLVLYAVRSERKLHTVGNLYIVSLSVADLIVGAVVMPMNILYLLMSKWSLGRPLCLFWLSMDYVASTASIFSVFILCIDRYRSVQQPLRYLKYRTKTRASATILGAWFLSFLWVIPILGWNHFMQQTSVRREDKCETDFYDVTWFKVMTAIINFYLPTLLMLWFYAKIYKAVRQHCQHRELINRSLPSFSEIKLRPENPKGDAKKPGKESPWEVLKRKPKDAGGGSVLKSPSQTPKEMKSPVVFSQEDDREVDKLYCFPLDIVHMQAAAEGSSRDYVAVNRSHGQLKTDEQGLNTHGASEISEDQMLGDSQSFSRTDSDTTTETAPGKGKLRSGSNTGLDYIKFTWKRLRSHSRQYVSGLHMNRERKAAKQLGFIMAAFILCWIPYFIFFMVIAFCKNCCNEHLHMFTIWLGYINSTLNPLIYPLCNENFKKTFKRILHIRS

COc1ccc(C(O)Cn2c3c(c4cc(C)ccc42)C2CCN(C3)C2)cc1F (stereo not drawn) [Compound 6]
inhibition at 1 µM [1]: 86%

Cc1ccc2c(c1)c1c(n2CCc2ccc(C)nc2)CN2CCC1C2 (stereo not drawn) [Compound 12]
inhibition at 1 µM [1]: 59%

Cc1ccc2c(c1)c1c(n2CC(=O)c2ccc(Cl)cc2)CN2CCC1C2 (stereo not drawn) [Compound 29]
inhibition at 1 µM [2]: 81%
inhibition at 1 µM [1]: 56%

COc1ccc(C(O)Cn2c3c(c4cc(C)ccc42)C2CCN(C3)C2)cc1OC (stereo not drawn) [Compound 8]
inhibition at 1 µM [1]: 33%

Cc1ccc2c(c1)c1c(n2CCc2ccncc2)CN2CCC1C2 (stereo not drawn) [Compound 30]
inhibition at 1 µM [2]: 95%
inhibition at 1 µM [1]: 76%

C/C(=C\n1c2c(c3cc(C)ccc31)C1CCN(C2)C1)c1ccc(F)cc1 (stereo not drawn) [Compound 22]
Percentage Inhibition, Histamine Binding (1 μM) H1 [1]: 58%
inhibition at 1 µM [1]: 52%

COc1ccc(/C(C)=C/n2c3c(c4cc(C)ccc42)C2CCN(C3)C2)cc1F (stereo not drawn) [Compound 41]
inhibition at 1 µM [2]: 90%
inhibition at 1 µM [1]: 21%

Cc1ccc2c(c1)c1c(n2CC(=O)N2CCC(C)CC2)CN2CCC1C2 (stereo not drawn) [Compound 25]
inhibition at 1 µM [1]: 30%

Cc1ccc2c(c1)c1c(n2C(=O)Cc2ccc(Cl)cc2)CN2CCC1C2 (stereo not drawn) [Compound 36]
inhibition at 0.1 µM [3]: -18%
inhibition at 1 µM [2]: 75%
inhibition at 0.1 µM [4]: 4%
inhibition at 1 µM [1]: 45%

Cc1ccc2c(c1)c1c(n2CC(C)(O)c2ccc(F)cc2)CN2CCC1C2 (stereo not drawn) [Compound 2]
inhibition at 1 µM [1]: 21%

Cc1ccc2c(c1)c1c(n2CC(=O)N(C)C)CN2CCC1C2 (stereo not drawn) [Compound 27]
inhibition at 1 µM [1]: 10%

Cc1ccc(C(O)Cn2c3c(c4cc(C)ccc42)C2CCN(C3)C2)cc1 (stereo not drawn) [Compound 5]
inhibition at 1 µM [1]: 48%

Cc1ccc2c(c1)c1c(n2CC(=O)c2ccc(F)cc2)CN2CCC1C2 (stereo not drawn) [Compound 28]
inhibition at 1 µM [2]: 82%
inhibition at 1 µM [1]: 64%

C/C(=C\n1c2c(c3cc(C)ccc31)C1CCN(C2)C1)c1ccc(Cl)cc1Cl (stereo not drawn) [Compound 34]
Percent Inhibition of ligand binding, Serotonin (1 μM ligand concentration) 5-HT7 [2]: 86%
Percentage Inhibition, Histamine Binding (1 μM) H1 [1]: 34%

Cc1ccc2c(c1)c1c(n2CC(=O)N2CCCCC2)CN2CCC1C2 (stereo not drawn) [Compound 7]
inhibition at 1 µM [1]: 17%

Cc1ccc2c(c1)c1c(n2CCc2cncc(F)c2)CN2CCC1C2 (stereo not drawn) [Compound 9]
inhibition at 1 µM [1]: 89%

C/C(=C/n1c2c(c3cc(C)ccc31)C1CCN(C2)C1)c1ccccc1F (stereo not drawn) [Compound 37]
inhibition at 1 µM [2]: 93%
inhibition at 1 µM [1]: 78%

Cc1ccc2c(c1)c1c(n2CCc2nc(-c3ccccc3)cs2)CN2CCC1C2 (stereo not drawn) [Compound 19]
inhibition at 1 µM [1]: 82%

Cc1ccc2c(c1)c1c(n2C#Cc2ccc(Cl)cc2)CN2CCC1C2 (stereo not drawn) [Compound 35]
inhibition at 1 µM [2]: 35%
inhibition at 1 µM [1]: 0%

Cc1ccc2c(c1)c1c(n2C(=O)Cc2ccc(F)cc2)CN2CCC1C2 (stereo not drawn) [Compound 43]
inhibition at 1 µM [2]: 41%
inhibition at 1 µM [1]: 16%

Cc1ccc2c(c1)c1c(n2CC(=O)N2CCOCC2)CN2CCC1C2 (stereo not drawn) [Compound 26]
inhibition at 1 µM [1]: 17%

Cc1ccc(C(C)(O)Cn2c3c(c4cc(C)ccc42)C2CCN(C3)C2)cc1 (stereo not drawn) [Compound 20]
inhibition at 1 µM [1]: 21%

Cc1ccc2c(c1)c1c(n2CC(C)(O)c2ccc(F)cc2F)CN2CCC1C2 (stereo not drawn) [Compound 17]
inhibition at 1 µM [1]: 16%

Cc1ccc2c(c1)c1c(n2CC(=O)NC2CCCCC2)CN2CCC1C2 (stereo not drawn) [Compound 23]
inhibition at 1 µM [1]: 13%

Cc1ccc2c(c1)c1c(n2CC(=O)N2CCNCC2)CN2CCC1C2 (stereo not drawn) [Compound 24]
inhibition at 1 µM [1]: 5%

Cc1ccc(/C=C/n2c3c(c4cc(C)ccc42)C2CCN(C3)C2)cc1 (stereo not drawn) [Compound 10]
inhibition at 1 µM [1]: 70%

Cc1ccc2c(c1)c1c(n2CC(O)c2ccc(F)cc2)CN2CCC1C2 (stereo not drawn) [Compound 31]
inhibition at 1 µM [2]: 73%
inhibition at 1 µM [1]: 42%

Cc1ccc2c(c1)c1c(n2CC(C)(O)c2ccc(Cl)cc2)CN2CCC1C2 (stereo not drawn) [Compound 16]
inhibition at 1 µM [1]: 20%

Cc1ccc2c(c1)c1c(n2CC(O)c2ccccc2)CN2CCC1C2 (stereo not drawn) [Compound 4]
inhibition at 1 µM [1]: 67%

Cc1ccc2c(c1)c1c(n2CC(=O)c2ccccc2)CN2CCC1C2 (stereo not drawn) [Compound 21]
inhibition at 1 µM [1]: 40%

Cc1ccc2c(c1)c1c(n2CC(C)(O)c2ccc(Cl)cc2Cl)CN2CCC1C2 (stereo not drawn) [Compound 14]
inhibition at 1 µM [1]: 37%

C/C(=C\n1c2c(c3cc(C)ccc31)C1CCN(C2)C1)c1ccc(Cl)c(Cl)c1 (stereo not drawn) [Compound 40]
inhibition at 1 µM [2]: 95%
inhibition at 1 µM [1]: 57%

C/C(=C\n1c2c(c3cc(C)ccc31)C1CCN(C2)C1)c1ccc(F)c(F)c1 (stereo not drawn) [Compound 39]
inhibition at 1 µM [2]: 96%
inhibition at 1 µM [1]: 26%

Cc1ccc2c(c1)c1c(n2CC(C)(O)c2ccc(F)c(Cl)c2)CN2CCC1C2 (stereo not drawn) [Compound 18]
inhibition at 1 µM [1]: 21%

Cc1ccc2c(c1)c1c(n2CC(C)(O)c2ccc(F)c(F)c2)CN2CCC1C2 (stereo not drawn) [Compound 15]
inhibition at 1 µM [1]: 82%

C/C(=C\n1c2c(c3cc(C)ccc31)C1CCN(C2)C1)c1cccnc1 (stereo not drawn) [Compound 42]
inhibition at 1 µM [2]: 92%
inhibition at 1 µM [1]: 20%

Cc1ccc2c(c1)c1c(n2CCc2ccccn2)CN2CCC1C2 (stereo not drawn) [Compound 11]
inhibition at 1 µM [1]: 77%

Cc1ccc2c(c1)c1c(n2CCc2ccc(C(F)(F)F)nc2)CN2CCC1C2 (stereo not drawn) [Compound 1]
inhibition at 1 µM [1]: 32%

Cc1ccc2c(c1)c1c(n2CC(C)(O)c2ccc(Cl)c(Cl)c2)CN2CCC1C2 (stereo not drawn) [Compound 13]
inhibition at 1 µM [1]: 24%

C=C(Cn1c2c(c3cc(C)ccc31)C1CCN(C2)C1)c1ccc(F)cc1 (stereo not drawn) [Compound 3]
Percentage Inhibition, Histamine Binding (1 μM) H1 [1]: 60%
inhibition at 1 µM [1]: 59%
